The target of one assay is Nitric oxide synthase 1 (Rattus norvegicus, UniProt P29476). The format is tissue-based, Cerebellum. Further: in other assays of this panel Not Active means under 50% inhibition at 10 µM.
A further assay addresses Glycine receptor (Rattus norvegicus, UniProt P22771+P24524+P07727+P20781). The format is cell membranes, Wistar, Spinal cord, Membrane.
The target in another assay is D(1A) dopamine receptor (Homo sapiens, UniProt P21728). Nature of the assay: DRUGMATRIX: Dopamine D1 radioligand binding (ligand: [3H] SCH-23390). The format is cell membranes, CHO, Membrane. The following applies: Not Active = under 50% inhibition at 10 µM.
Assay [1] has as its target Vascular endothelial growth factor receptor 1 (Homo sapiens, UniProt P17948). The format is cell-based. To be noted: huvec. Further: in other assays of this panel Not Active means under 50% inhibition at 10 µM.
The target in a further assay is T1, D(4) dopamine receptor (Homo sapiens, UniProt P21917).
T1 sequence (P21917 whole entry): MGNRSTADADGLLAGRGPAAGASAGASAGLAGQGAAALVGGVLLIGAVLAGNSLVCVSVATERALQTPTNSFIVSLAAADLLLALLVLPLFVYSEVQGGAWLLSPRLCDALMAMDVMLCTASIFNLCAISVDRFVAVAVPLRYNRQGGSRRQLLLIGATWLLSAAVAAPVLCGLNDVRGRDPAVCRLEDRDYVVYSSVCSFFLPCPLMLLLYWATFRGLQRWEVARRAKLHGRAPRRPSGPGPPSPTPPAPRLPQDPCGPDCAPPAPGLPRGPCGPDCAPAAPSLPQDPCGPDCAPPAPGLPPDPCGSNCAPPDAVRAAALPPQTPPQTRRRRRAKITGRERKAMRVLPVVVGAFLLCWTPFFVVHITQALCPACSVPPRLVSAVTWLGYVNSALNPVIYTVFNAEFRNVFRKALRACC
Kind of assay: DRUGMATRIX: Dopamine D4.2 radioligand binding (ligand: [3H] Spiperone). The format is cell membranes, CHO-K1, Membrane. The following applies: cho-k1; Not Active = under 50% inhibition at 10 µM.

Assay [2] in a line: DRUGMATRIX: Potassium Channel [KATP] radioligand binding (ligand: [3H] Glyburide). It is filed as cell membranes, Membrane. The following applies: hit-t15; Not Active = under 50% inhibition at 10 µM.
Assay [3] has as its target T2, Vasoactive intestinal polypeptide receptor 1 (Homo sapiens, UniProt P32241). Further: in other assays of this panel Not Active means under 50% inhibition at 10 µM.
T2 sequence (P32241 whole entry): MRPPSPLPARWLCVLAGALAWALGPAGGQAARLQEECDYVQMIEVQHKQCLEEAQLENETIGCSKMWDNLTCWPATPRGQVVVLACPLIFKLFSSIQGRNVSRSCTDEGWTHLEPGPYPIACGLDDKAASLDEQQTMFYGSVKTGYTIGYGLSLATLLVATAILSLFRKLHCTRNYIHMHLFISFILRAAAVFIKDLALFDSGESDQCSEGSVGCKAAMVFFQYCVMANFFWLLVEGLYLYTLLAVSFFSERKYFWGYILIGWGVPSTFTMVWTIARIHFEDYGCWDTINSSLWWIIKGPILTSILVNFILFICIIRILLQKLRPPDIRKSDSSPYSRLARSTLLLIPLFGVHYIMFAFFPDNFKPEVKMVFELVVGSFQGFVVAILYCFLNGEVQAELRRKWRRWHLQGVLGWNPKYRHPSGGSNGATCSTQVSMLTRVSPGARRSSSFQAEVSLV
The format is cell membranes, Membrane. To be noted: ht-29.

In a further assay the target is T3, Endothelin-1 receptor (Homo sapiens, UniProt P25101). Further: in other assays of this panel Not Active means under 50% inhibition at 10 µM.
T3 sequence (P25101 whole entry): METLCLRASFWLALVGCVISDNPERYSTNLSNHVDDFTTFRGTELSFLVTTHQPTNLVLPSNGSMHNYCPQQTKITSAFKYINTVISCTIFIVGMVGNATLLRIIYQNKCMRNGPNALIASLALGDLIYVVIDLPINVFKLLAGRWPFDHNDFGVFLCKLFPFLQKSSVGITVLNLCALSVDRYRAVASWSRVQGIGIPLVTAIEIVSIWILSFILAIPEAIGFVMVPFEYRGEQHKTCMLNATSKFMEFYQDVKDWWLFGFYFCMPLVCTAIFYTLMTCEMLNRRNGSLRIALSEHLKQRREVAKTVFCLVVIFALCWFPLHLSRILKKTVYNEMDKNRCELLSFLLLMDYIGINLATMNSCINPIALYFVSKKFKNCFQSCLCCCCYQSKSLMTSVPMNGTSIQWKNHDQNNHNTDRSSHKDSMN
It is filed as cell membranes, Membrane. The following applies: cho-k1.

This note sets out measurements from ChEMBL document CHEMBL1909046, “DrugMatrix in vitro pharmacology data”.

D(1A) dopamine receptor, sequence (P21728 whole entry): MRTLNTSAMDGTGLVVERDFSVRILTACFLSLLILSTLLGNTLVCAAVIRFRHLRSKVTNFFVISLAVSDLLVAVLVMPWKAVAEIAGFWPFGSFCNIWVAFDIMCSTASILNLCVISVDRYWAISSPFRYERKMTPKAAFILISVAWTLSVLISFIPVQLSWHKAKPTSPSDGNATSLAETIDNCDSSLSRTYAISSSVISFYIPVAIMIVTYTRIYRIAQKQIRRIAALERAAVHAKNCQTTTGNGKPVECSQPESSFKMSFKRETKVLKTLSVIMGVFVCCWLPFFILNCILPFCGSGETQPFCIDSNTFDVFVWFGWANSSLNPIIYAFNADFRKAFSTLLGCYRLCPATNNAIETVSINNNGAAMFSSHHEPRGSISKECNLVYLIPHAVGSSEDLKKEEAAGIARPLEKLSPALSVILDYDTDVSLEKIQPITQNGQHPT
Nitric oxide synthase 1, sequence (P29476 whole entry): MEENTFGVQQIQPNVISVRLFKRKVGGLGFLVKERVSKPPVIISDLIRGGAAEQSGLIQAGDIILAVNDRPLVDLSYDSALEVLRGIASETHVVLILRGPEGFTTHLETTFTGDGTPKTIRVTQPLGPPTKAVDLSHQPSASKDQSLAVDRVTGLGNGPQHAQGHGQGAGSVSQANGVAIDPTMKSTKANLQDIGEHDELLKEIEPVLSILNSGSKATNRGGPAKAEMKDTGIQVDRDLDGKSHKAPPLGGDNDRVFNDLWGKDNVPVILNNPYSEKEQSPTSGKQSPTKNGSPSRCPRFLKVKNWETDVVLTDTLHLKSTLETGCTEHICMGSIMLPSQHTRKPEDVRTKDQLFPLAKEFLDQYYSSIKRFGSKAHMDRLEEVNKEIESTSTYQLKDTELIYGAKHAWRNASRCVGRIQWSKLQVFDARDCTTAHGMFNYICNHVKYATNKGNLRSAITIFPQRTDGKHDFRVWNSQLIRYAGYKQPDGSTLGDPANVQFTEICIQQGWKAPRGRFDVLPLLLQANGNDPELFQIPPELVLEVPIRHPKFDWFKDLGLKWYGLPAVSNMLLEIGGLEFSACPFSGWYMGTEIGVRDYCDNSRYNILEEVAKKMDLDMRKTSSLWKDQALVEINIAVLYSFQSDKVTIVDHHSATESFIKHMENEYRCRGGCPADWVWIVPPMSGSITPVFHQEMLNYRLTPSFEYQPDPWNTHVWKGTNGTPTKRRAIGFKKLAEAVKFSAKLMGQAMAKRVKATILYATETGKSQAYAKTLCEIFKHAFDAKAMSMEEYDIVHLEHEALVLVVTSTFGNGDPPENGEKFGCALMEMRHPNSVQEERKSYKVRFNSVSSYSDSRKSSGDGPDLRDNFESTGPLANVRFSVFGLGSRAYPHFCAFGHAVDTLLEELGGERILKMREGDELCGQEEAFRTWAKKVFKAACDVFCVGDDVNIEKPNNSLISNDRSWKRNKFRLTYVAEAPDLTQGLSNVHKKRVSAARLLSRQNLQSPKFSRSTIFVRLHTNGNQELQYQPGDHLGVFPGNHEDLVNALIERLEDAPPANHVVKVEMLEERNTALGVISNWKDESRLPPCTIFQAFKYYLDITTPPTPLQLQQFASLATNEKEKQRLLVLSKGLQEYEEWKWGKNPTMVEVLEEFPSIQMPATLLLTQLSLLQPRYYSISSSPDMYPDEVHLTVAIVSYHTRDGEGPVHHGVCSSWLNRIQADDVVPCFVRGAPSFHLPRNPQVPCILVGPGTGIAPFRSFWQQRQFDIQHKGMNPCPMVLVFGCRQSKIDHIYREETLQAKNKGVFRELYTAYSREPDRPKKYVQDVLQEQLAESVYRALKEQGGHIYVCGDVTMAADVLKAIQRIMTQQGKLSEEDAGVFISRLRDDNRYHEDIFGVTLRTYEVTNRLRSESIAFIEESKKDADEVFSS
Vascular endothelial growth factor receptor 1, sequence (P17948 whole entry): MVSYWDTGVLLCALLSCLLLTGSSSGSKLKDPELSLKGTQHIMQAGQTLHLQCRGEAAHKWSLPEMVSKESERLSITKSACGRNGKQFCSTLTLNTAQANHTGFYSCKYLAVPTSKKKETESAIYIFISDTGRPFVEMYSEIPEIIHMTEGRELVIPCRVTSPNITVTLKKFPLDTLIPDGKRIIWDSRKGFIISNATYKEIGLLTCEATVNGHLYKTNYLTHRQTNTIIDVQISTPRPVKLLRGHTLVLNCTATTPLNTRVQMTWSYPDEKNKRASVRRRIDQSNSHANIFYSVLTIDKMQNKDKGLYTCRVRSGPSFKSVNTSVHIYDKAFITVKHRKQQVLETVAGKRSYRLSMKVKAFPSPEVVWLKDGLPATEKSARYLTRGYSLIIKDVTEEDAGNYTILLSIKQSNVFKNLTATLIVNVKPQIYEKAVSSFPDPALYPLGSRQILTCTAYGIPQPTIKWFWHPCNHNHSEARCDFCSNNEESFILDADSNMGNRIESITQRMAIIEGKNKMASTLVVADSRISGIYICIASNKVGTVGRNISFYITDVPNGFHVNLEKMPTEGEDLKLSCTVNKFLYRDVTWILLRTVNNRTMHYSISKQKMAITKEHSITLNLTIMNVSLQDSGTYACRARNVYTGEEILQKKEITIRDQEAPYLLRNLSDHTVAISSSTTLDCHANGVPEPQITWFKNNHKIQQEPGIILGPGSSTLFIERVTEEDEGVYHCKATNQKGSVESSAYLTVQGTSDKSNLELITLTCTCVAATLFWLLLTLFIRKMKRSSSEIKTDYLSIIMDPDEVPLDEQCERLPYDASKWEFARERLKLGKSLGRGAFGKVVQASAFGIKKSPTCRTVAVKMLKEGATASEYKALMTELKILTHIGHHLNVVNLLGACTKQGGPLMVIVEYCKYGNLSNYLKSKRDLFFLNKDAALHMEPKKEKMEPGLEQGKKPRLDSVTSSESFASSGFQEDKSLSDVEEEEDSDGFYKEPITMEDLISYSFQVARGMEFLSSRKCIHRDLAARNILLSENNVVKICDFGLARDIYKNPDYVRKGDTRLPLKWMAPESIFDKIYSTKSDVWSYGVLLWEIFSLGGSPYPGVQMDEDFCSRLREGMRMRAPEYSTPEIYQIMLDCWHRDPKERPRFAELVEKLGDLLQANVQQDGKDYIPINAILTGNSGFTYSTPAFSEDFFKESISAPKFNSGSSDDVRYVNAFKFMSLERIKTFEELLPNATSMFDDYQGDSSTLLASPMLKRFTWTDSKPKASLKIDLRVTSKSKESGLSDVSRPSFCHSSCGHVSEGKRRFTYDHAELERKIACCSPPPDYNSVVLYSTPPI

`C[N+](C)(C)CCOC(N)=O.[Cl-]` [CARBACHOL]: the 50% inhibitory concentration (IC50) result (against Nitric oxide synthase 1; at Glycine receptor; at D(1A) dopamine receptor (cho); in assay [1]; in assay [2]; in assay [3]) was “Not Active” throughout. In addition, the IC50 entry against Endothelin-1 receptor is on record as “Not Active”. Besides, the Ki entry (on D(4) dopamine receptor; in assay [2]) was “Not Active” each time.

`C[C@]12CC[C@@H](O)C[C@@H]1CC[C@@H]1[C@@H]2CC[C@]2(C)C(=O)CC[C@@H]12` [ANDROSTERONE]: the IC50 result (against Nitric oxide synthase 1; on Glycine receptor; on D(1A) dopamine receptor (cho); in assay [1]; on D(4) dopamine receptor; in assay [2]) was “Not Active” in each case. The IC50 result (in assay [3]; at Endothelin-1 receptor) was “Not Active” each time. Besides, the inhibitory constant (Ki) entry in assay [2] was “Not Active”.

Take `C[C@H](C(=O)O)c1ccc2oc(-c3ccc(F)cc3)nc2c1` [FLUNOXAPROFEN]: the IC50 result (at Nitric oxide synthase 1; against Glycine receptor; on D(1A) dopamine receptor (cho); in assay [1]; on D(4) dopamine receptor; in assay [2]) was “Not Active” in each case. Besides, the IC50 entry (in assay [3]; against Endothelin-1 receptor) was “Not Active” in each case. Besides, in assay [2], the Ki entry was “Not Active”.

Turning to COPPER(II) OXIDE, the concentration for half-maximal inhibition (IC50) entry (against Nitric oxide synthase 1; at Glycine receptor; on D(1A) dopamine receptor (cho); in assay [1]; on D(4) dopamine receptor; in assay [2]) was “Not Active” throughout. In addition, the IC50 entry (in assay [3]; at Endothelin-1 receptor) was “Not Active” in each case. Further, the inhibitory constant (Ki) entry (on Nitric oxide synthase 1; at Glycine receptor; on D(1A) dopamine receptor (cho); in assay [1]; at D(4) dopamine receptor; in assay [2]) was “Not Active” each time. The Ki entry (in assay [3]; at Endothelin-1 receptor) was “Not Active” in each case.

Turning to `NC(=O)CN1CCCC1=O`, the IC50 result (against Nitric oxide synthase 1; against Glycine receptor; on D(1A) dopamine receptor (cho); in assay [1]; on D(4) dopamine receptor; in assay [2]) was “Not Active” each time. Moreover, the IC50 entry (in assay [3]; against Endothelin-1 receptor) was “Not Active” in each case. The Ki entry in assay [2] is on record as “Not Active”.

As to `O=C1c2ccccc2C(=O)C1c1ccccc1` [PHENINDIONE], the IC50 entry (on Nitric oxide synthase 1; on Glycine receptor; at D(1A) dopamine receptor (cho); in assay [1]; on D(4) dopamine receptor; in assay [2]) was “Not Active” throughout. Further, the IC50 entry (in assay [3]; on Endothelin-1 receptor) was “Not Active” each time. Also, the Ki result in assay [2] is “Not Active”.

Regarding `CCN1C[C@]2(COC)[C@H](O)C[C@H](OC)[C@@]34[C@@H]5C[C@@]6(O)[C@H](OC(=O)c7ccccc7)[C@@H]5[C@@](OC(C)=O)([C@@H]([C@H](OC)[C@H]23)[C@@H]14)[C@@H](O)[C@@H]6OC` [ACONITINE], the IC50 result (against Nitric oxide synthase 1; against Glycine receptor; at D(1A) dopamine receptor (cho); in assay [1]; at D(4) dopamine receptor; in assay [2]) was “Not Active” each time. Further, the IC50 result (in assay [3]; against Endothelin-1 receptor) was “Not Active” in each case. The Ki entry in assay [2] is “Not Active”.

On to `O=C(NCCN1CCOCC1)c1ccc(Cl)cc1` [MOCLOBEMIDE], for which the IC50 entry (at Nitric oxide synthase 1; at Glycine receptor; at D(1A) dopamine receptor (cho); in assay [1]; on D(4) dopamine receptor; in assay [2]) was “Not Active” in each case. The IC50 result (in assay [3]; on Endothelin-1 receptor) was “Not Active” each time. Also, in assay [2], the inhibitory constant (Ki) entry is given as “Not Active”.

For `O=C(O)COC(=O)Cc1ccccc1Nc1c(Cl)cccc1Cl` [ACECLOFENAC], the IC50 entry (against Nitric oxide synthase 1; against Glycine receptor; at D(1A) dopamine receptor (cho); in assay [1]; at D(4) dopamine receptor; in assay [2]) was “Not Active” in each case. Further, the IC50 entry (in assay [3]; against Endothelin-1 receptor) was “Not Active” in each case. Besides, the Ki result in assay [2] is on record as “Not Active”.

As to `COc1cc(/C=C/C(=O)O)ccc1O` [FERULATE], the IC50 result (against Nitric oxide synthase 1; against Glycine receptor; on D(1A) dopamine receptor (cho); in assay [1]; at D(4) dopamine receptor; in assay [2]) was “Not Active” in each case. For the same compound, the IC50 entry (in assay [3]; against Endothelin-1 receptor) was “Not Active” throughout. In addition, in assay [2], the Ki result is “Not Active”.

As to `O=c1[nH]c2ccccc2c2ccccc12`, the IC50 result (at Nitric oxide synthase 1; against Glycine receptor; on D(1A) dopamine receptor (cho); in assay [1]; at D(4) dopamine receptor; in assay [2]) was “Not Active” throughout. In addition, the IC50 entry (in assay [3]; against Endothelin-1 receptor) was “Not Active” throughout. Further, the Ki result in assay [2] is given as “Not Active”.

As for `COc1ccc(C[C@H](N)C(=O)N[C@H]2[C@@H](O)[C@H](n3cnc4c(N(C)C)ncnc43)O[C@@H]2CO)cc1` [PUROMYCIN], the IC50 result (on Nitric oxide synthase 1; on Glycine receptor; at D(1A) dopamine receptor (cho); in assay [1]; at D(4) dopamine receptor; in assay [2]) was “Not Active” in each case. Also, the half-maximal inhibitory concentration (IC50) result (in assay [3]; against Endothelin-1 receptor) was “Not Active” each time. Also, the Ki result in assay [2] was “Not Active”.

For the compound `NC(=O)NC(=O)Cc1ccccc1` [PHENACEMIDE], the IC50 result (at Nitric oxide synthase 1; against Glycine receptor; on D(1A) dopamine receptor (cho); in assay [1]; at D(4) dopamine receptor; in assay [2]) was “Not Active” each time. Besides, the IC50 result (in assay [3]; against Endothelin-1 receptor) was “Not Active” each time. The Ki result in assay [2] is given as “Not Active”.

As for `COc1ccccc1OCCNCC(O)COc1cccc2[nH]c3ccccc3c12` (configuration not stated) [CARVEDILOL], the IC50 result was “Not Active” at Nitric oxide synthase 1; “Not Active” against Glycine receptor; 1500 nM on D(1A) dopamine receptor (read-out: IC50); “Not Active” in assay [1]; “Not Active” at D(4) dopamine receptor; “Not Active” in assay [2]. For the same compound, the IC50 entry (in assay [3]; at Endothelin-1 receptor) was “Not Active” each time. Further, the Ki on D(1A) dopamine receptor (read-out: Ki) is 749 nM; in assay [2], “Not Active”.

As for `Clc1cc(Cl)c(OCC#CI)cc1Cl` [HALOPROGIN], the IC50 entry (against Nitric oxide synthase 1; at Glycine receptor; in assay [1]; on D(4) dopamine receptor; in assay [2]; in assay [3]) was “Not Active” throughout. In addition, the IC50 entry against Endothelin-1 receptor was “Not Active”. Also, the Ki result in assay [2] is “Not Active”.

Turning to `NC(N)=Nc1nc(CSCCC(N)=NS(N)(=O)=O)cs1` [FAMOTIDINE], the 50% inhibitory concentration (IC50) result (against Nitric oxide synthase 1; at Glycine receptor; on D(1A) dopamine receptor (cho); in assay [1]; at D(4) dopamine receptor; in assay [3]) was “Not Active” throughout. At Endothelin-1 receptor, the IC50 entry was “Not Active”.

As to `CC1(COc2ccc(CC3SC(=O)NC3=O)cc2)CCCCC1` (configuration not stated) [CIGLITAZONE], the IC50 result (on Nitric oxide synthase 1; against Glycine receptor; in assay [1]; on D(4) dopamine receptor; in assay [2]; in assay [3]) was “Not Active” in each case. Moreover, the IC50 result against Endothelin-1 receptor is given as “Not Active”. Moreover, the Ki result in assay [2] is “Not Active”.
